ChEMBL document CHEMBL1139578, “(1H-imidazo[4,5-c]pyridin-2-yl)-1,2,5-oxadiazol-3-ylamine derivatives: further optimisation as highly potent and selective MSK-1-inhibitors” (Bioorg Med Chem Lett, 2005)
Each block holds one molecule with its values, some of them ahead of it.

How the values were obtained:
[1] = target: T1, Dual specificity tyrosine-phosphorylation-regulated kinase 1A (Homo sapiens, UniProt Q13627); assay: Percent inhibition against DYRK1a at 10 uM using 100 uM ATP
[2] = target: Casein kinase II (Homo sapiens) (UniProt P67870+P68400+P19784); assay: Percent inhibition against CK2 at 10 uM using 100 uM ATP; type: protein-complex assay
[3] = target: MAP kinase-activated protein kinase 2 (Homo sapiens) (UniProt P49137); assay: Percent inhibition against MAPKAP-K2 at 10 uM using 100 uM ATP
Sequence of MAP kinase-activated protein kinase 2 (Homo sapiens) (P49137 whole entry, looked up): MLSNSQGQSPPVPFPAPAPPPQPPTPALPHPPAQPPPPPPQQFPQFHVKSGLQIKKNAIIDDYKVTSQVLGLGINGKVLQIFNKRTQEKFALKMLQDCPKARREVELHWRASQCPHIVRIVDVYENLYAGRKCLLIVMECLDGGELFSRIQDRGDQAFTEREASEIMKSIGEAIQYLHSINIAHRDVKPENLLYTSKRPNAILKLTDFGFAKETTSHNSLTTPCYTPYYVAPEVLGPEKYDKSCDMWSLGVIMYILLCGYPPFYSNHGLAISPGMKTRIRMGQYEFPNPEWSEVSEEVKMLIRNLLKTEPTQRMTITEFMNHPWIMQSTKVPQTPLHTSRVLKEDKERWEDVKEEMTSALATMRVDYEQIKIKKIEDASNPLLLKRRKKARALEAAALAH

[4] = target: T2, Rho-associated protein kinase 1 (Homo sapiens, UniProt Q13464); conditions: 10 uM
Target sequence in this assay (Q13464 2-1354 limits assumed): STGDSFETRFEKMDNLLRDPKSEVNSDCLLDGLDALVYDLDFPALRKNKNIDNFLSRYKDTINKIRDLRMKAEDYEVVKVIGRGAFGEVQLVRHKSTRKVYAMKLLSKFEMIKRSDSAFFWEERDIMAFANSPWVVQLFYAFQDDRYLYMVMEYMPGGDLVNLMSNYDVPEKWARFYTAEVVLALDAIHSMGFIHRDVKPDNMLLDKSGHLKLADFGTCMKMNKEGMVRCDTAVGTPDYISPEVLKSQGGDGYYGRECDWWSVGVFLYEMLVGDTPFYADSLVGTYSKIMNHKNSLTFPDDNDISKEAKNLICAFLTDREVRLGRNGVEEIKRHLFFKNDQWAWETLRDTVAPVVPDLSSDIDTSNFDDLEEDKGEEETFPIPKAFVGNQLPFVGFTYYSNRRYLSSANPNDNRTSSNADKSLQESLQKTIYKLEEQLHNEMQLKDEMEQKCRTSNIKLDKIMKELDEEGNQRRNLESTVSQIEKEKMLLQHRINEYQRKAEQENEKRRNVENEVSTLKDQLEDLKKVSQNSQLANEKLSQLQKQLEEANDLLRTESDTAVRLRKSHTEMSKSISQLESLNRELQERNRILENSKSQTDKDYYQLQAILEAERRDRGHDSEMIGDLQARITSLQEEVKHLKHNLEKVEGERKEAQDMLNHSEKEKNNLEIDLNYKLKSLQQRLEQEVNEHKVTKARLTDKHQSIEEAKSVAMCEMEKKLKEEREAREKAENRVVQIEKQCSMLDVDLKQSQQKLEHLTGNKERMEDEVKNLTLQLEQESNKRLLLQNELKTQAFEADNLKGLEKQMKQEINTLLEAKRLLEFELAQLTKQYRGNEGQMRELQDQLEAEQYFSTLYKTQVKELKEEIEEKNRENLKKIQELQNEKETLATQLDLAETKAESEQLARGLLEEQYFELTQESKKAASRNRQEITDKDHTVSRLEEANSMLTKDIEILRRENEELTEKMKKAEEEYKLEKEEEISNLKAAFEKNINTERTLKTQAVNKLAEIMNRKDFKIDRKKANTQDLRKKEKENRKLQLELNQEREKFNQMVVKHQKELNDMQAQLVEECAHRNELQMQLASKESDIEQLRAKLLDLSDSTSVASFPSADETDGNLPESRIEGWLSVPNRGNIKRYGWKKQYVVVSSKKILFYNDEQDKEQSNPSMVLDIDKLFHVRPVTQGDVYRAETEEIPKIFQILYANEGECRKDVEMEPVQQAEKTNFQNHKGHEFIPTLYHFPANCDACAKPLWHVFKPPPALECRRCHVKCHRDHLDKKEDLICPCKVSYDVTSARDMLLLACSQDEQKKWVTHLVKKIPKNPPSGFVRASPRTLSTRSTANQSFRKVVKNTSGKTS
Description: Percent inhibition against ROCK1 at 10 uM using 100 uM ATP

[5] = target: Mitogen-activated protein kinase 1 (Homo sapiens) (UniProt P28482); assay: Percent inhibition against MAPK2 at 10 uM using 100 uM ATP
[6] = target: Ribosomal protein S6 kinase alpha-1 (Homo sapiens) (UniProt Q15418); assay: Percent inhibition against MAPKAP-K1a at 10 uM using 100 uM ATP
[7] = target: Mitogen-activated protein kinase 14 (Homo sapiens) (UniProt Q16539); assay: Percent inhibition against p38-alpha at 10 uM using 100 uM ATP
[8] = target: 5'-AMP-activated protein kinase catalytic subunit alpha-1 (Homo sapiens) (UniProt Q13131); assay: Percent inhibition against AMPK at 10 uM using 100 uM ATP
[9] = target: 3-phosphoinositide-dependent protein kinase 1 (Homo sapiens) (UniProt O15530); assay: Percent inhibition against PDK1 at 10 uM using 100 uM ATP
[10] = target: T3, Cyclin-dependent kinase 2 (Homo sapiens, UniProt P24941); assay: Inhibitory concentration against selected kinase CDK2
[11] = target: T3, Cyclin-dependent kinase 2; assay: Percent inhibition against CDK2 at 10 uM using 100 uM ATP
[12] = target: Protein kinase C alpha type (Homo sapiens) (UniProt P17252); assay: Percent inhibition against PKCalpha at 10 uM using 100 uM ATP
[13] = target: Dual specificity mitogen-activated protein kinase kinase 1 (Homo sapiens) (UniProt Q02750); assay: Percent inhibition against MKK1 at 10 uM using 100 uM ATP
[14] = target: Serine/threonine-protein kinase Chk1 (Homo sapiens) (UniProt O14757); assay: Percent inhibition against Chk1 at 10 uM using 100 uM ATP
[15] = target: T4, Ribosomal protein S6 kinase alpha-5 (Homo sapiens, UniProt O75582); assay: Percent inhibition against MSK1 at 10 uM using 100 uM ATP
Target sequence in this assay (O75582 whole entry, looked up): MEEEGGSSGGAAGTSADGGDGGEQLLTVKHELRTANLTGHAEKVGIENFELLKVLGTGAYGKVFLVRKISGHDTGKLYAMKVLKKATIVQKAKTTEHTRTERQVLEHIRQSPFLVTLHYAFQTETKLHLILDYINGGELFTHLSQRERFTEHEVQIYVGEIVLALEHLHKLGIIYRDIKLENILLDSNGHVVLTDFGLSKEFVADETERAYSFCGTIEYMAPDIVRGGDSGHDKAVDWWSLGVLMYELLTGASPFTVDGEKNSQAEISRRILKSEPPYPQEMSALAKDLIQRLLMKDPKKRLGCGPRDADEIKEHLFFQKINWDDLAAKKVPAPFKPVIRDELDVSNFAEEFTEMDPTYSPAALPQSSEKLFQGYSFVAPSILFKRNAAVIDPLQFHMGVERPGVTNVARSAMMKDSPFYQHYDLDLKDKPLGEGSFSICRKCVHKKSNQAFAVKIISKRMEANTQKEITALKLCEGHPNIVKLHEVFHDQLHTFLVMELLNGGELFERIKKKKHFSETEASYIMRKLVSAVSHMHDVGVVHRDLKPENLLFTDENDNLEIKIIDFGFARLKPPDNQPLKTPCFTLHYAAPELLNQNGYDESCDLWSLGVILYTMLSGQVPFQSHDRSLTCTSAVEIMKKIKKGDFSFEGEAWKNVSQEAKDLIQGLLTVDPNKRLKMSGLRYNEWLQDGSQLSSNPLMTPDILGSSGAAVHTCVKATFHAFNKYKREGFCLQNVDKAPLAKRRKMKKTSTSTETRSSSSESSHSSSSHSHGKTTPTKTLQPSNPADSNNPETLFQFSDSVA

[16] = target: T1, Dual specificity tyrosine-phosphorylation-regulated kinase 1A; assay: Inhibitory concentration against selected kinase DYRK1-alpha
[17] = target: Serine/threonine-protein kinase Sgk1 (Homo sapiens) (UniProt O00141); assay: Percent inhibition against SGK at 10 uM using 100 uM ATP
Sequence of Serine/threonine-protein kinase Sgk1 (Homo sapiens) (O00141 whole entry): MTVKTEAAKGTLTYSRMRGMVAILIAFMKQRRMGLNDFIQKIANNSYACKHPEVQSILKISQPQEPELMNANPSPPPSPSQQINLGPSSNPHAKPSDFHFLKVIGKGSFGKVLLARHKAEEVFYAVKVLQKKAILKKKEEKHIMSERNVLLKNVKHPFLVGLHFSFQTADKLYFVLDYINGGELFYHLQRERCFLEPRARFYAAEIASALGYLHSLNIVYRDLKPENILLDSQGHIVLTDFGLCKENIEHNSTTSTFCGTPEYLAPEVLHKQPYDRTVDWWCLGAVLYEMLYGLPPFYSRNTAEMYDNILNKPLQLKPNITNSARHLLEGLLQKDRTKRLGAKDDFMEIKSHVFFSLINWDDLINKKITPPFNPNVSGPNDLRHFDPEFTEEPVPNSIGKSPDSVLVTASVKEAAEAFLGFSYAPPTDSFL

[18] = target: Mitogen-activated protein kinase 11 (Homo sapiens) (UniProt Q15759); assay: Percent inhibition against p38b at 10 uM using 100 uM ATP
[19] = target: Mitogen-activated protein kinase 8 (Homo sapiens) (UniProt P45983); assay: Percent inhibition against JNK1 at 10 uM using 100 uM ATP
[20] = target: Mitogen-activated protein kinase 13 (Homo sapiens) (UniProt O15264); assay: Percent inhibition against p38d at 10 uM using 100 uM ATP
[21] = target: T4, Ribosomal protein S6 kinase alpha-5; assay: Inhibitory concentration against MSK-1
Target sequence in this assay (O75582 whole entry): as the sequence (O75582 whole entry, looked up) above

[22] = target: T2, Rho-associated protein kinase 1; assay: Inhibitory concentration against selected kinase ROCK1
Target sequence in this assay (Q13464 whole entry): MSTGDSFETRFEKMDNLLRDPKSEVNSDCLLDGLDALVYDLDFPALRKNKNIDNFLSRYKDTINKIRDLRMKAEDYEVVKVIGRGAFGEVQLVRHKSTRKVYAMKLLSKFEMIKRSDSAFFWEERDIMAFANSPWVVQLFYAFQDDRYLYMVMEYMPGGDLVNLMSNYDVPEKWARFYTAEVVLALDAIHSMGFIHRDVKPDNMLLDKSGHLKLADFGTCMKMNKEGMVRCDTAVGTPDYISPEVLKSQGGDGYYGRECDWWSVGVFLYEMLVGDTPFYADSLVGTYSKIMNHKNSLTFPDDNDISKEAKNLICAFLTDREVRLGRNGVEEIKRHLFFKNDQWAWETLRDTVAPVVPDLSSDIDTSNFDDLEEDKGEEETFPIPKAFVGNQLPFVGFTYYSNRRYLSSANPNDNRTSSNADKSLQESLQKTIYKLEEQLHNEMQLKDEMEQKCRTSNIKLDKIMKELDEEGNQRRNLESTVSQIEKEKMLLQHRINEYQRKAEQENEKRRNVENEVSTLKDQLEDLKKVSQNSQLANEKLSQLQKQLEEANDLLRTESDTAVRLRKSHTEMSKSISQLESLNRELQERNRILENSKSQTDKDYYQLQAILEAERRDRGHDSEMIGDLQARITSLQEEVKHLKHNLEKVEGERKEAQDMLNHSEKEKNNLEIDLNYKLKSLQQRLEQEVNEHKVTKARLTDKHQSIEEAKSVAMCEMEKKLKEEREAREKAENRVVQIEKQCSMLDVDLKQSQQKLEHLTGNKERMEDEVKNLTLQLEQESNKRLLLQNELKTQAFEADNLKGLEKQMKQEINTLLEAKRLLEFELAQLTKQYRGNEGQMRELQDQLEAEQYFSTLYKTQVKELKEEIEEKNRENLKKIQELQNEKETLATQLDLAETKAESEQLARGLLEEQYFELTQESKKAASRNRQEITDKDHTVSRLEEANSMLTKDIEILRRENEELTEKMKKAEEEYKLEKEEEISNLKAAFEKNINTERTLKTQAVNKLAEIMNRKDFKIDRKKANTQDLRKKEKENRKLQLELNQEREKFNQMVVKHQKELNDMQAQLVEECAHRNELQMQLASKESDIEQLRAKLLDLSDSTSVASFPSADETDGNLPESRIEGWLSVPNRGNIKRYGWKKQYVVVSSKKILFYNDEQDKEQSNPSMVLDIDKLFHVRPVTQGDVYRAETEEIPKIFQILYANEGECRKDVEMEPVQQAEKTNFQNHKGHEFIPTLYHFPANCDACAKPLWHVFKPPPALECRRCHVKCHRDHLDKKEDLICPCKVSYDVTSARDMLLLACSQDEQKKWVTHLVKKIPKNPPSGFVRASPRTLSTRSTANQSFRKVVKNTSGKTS

[23] = target: T5, Ribosomal protein S6 kinase beta-1 (Homo sapiens, UniProt P23443); conditions: 10 uM
Target sequence in this assay (P23443 whole entry, looked up): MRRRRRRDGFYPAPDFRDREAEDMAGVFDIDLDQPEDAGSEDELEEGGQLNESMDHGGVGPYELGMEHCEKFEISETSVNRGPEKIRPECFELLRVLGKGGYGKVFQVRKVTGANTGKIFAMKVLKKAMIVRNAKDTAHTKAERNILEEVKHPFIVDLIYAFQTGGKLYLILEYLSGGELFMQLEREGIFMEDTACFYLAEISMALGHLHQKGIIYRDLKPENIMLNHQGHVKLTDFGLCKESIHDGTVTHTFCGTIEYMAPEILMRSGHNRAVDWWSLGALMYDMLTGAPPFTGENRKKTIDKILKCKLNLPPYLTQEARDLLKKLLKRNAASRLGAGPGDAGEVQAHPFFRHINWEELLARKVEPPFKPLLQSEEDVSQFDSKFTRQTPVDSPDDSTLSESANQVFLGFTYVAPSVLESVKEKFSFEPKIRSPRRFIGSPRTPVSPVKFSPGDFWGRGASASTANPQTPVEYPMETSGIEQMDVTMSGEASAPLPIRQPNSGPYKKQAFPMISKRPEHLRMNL
Description: Percent inhibition against p70S6K at 10 uM using 100 uM ATP

[24] = target: Glycogen synthase kinase-3 beta (Homo sapiens) (UniProt P49841); assay: Percent inhibition against GSK3-beta at 10 uM using 100 uM ATP
[25] = target: T5, Ribosomal protein S6 kinase beta-1; assay: Inhibitory concentration against selected kinase p70S6K
Target sequence in this assay (P23443 whole entry): as the sequence (P23443 whole entry, looked up) above

[26] = target: cAMP-dependent protein kinase (PKA) (Homo sapiens) (UniProt P22694+P17612+P22612); assay: Percent inhibition against PKA at 10 uM using 100 uM ATP; type: protein assay

Structure (SMILES): CCn1c(-c2nonc2N)nc2c(-c3ccccc3)nccc21
IC50 [21]: 813 nM

Structure (SMILES): CCn1c(-c2nonc2N)nc2c(Oc3ccccc3)nccc21
IC50 [21]: 10000 nM

Structure (SMILES): NCCCn1c(-c2nonc2N)nc2cnccc21
IC50 [21]: 22 nM

Structure (SMILES): CCn1c(-c2nonc2N)nc2cncc(CNC3CCNCC3)c21
IC50 [10]: > 10000 nM | IC50 [16]: 4900 nM | IC50 [21]: 0.5 nM | IC50 [22]: 100 nM | IC50 [25]: 270 nM

Structure (SMILES): CCn1c(-c2nonc2N)nc2c(N3CCCC3)nccc21
IC50 [21]: 2240 nM

Structure (SMILES): CCn1c(-c2nonc2N)nc2c(OC)nccc21
IC50 [21]: 209 nM

Structure (SMILES): Nc1nonc1-c1nc2cnccc2n1C1CCNCC1
IC50 [21]: 17 nM

Structure (SMILES): CN(C)CCCn1c(-c2nonc2N)nc2cnccc21
IC50 [21]: 617 nM

Structure (SMILES): CCOc1nccc2c1nc(-c1nonc1N)n2CC
IC50 [21]: 174 nM

Structure (SMILES): CCc1nccc2c1nc(-c1nonc1N)n2CC
IC50 [21]: 229 nM

More lines, in order of falling IC50 [21], values ahead:

IC50 [21]: 13 nM
Structure (SMILES): NCCCCn1c(-c2nonc2N)nc2cnccc21

IC50 [21]: 8 nM
Structure (SMILES): CCn1c(-c2nonc2N)nc2c(C)nccc21

IC50 [21]: 7 nM
Structure (SMILES): CCn1c(-c2nonc2N)nc2cncc(CN3CCCCC3)c21

IC50 [21]: 6 nM
Structure (SMILES): Nc1nonc1-c1nc2cnccc2n1-c1ccccc1

IC50 [21]: 4 nM
Structure (SMILES): NCc1ccc(-n2c(-c3nonc3N)nc3cnccc32)cc1

IC50 [21]: 4 nM
Structure (SMILES): CCn1c(-c2nonc2N)nc2c(Cl)nccc21

inhibition [1]: 94% | inhibition [2]: 15% | inhibition [3]: 12% | inhibition [4]: 90% | inhibition [5]: 41% | inhibition [6]: 97% | inhibition [7]: -7% | inhibition [8]: 59% | inhibition [9]: 32% | IC50 [10]: 169 nM | inhibition [11]: 84% | inhibition [12]: 56% | inhibition [13]: 17% | inhibition [14]: -6% | inhibition [15]: 96% | IC50 [16]: 110 nM | inhibition [17]: 67% | inhibition [18]: 18% | inhibition [19]: 13% | inhibition [20]: 6% | IC50 [21]: 3 nM | IC50 [22]: 13 nM | inhibition [23]: 95% | inhibition [24]: 90% | IC50 [25]: 70 nM | inhibition [26]: 75%
Structure (SMILES): CCn1c(-c2nonc2N)nc2cnccc21

IC50 [21]: 3 nM
Structure (SMILES): Nc1nonc1-c1nc2cnccc2n1C1CCCCC1

IC50 [21]: 3 nM
Structure (SMILES): CCn1c(-c2nonc2N)nc2cncc(CN3CCC(N)CC3)c21

IC50 [21]: 2.5 nM
Structure (SMILES): NCc1cccc(-n2c(-c3nonc3N)nc3cnccc32)c1

IC50 [21]: 2 nM
Structure (SMILES): Nc1nonc1-c1nc2cnccc2n1C1CCCNC1 (racemic)

IC50 [21]: 1.5 nM
Structure (SMILES): Nc1nonc1-c1nc2cnccc2n1C1CC1

IC50 [21]: 1.4 nM
Structure (SMILES): CCn1c(-c2nonc2N)nc2cncc(CN3CCNCC3)c21
